Measured values as given in patent US20220347085A1, “REPELLENT COMPOSITION AND USES” (Université Bourgogne, priority 2019, published 2022).

System: Drosophila suzukii
Test: Anesthesia test, Drosophila suzukii
Type: in vivo
Settings: female flies
Experimental: The devices used were similar to the devices for studying the courtship (example 1 above), except for the volume of the space into which the files were introduced, which was 45.24 or 22.62 cm^3. 9 discs of filter paper (Whatman, filter paper 42), each soaked in 10 μl of a composition comprising butyric acid and/or propionic acid and/or a derivative of propionic acid diluted in paraffin oil were deposited in the device. The different compositions used comprised, respectively, 2% propionic acid or 2% butyric acid or 5% ethyl propanoate or 10% ethyl propanoate or 30% ethyl propanoate. For each composition, the number of flies was, respectively, 30 and 24 males, 30 and 11 females for Drosophila melanogaster, and 24, 16 and 4 males, 28, 26, 6, 5 and 4 females for Drosophila suzukii. In order to avoid any contact of the flies with the soaked disks of paper, a gauze (netting) was arranged above said papers. The drosophilae could move freely on said gauze. The quantity of compound, butyric acid or propionic acid, or of ethyl propanoate (odor) volatilized in the behavior chamber was equivalent to that of the device used for the courtship. Likewise, the flies were never in direct contact with the composition (no taste perception), only with the volatile particles (olfactory perception). The flies tested were introduced simultaneously, by group, into the enclosure. Their behavior was filed for 10 minutes, and a time required for leading to anesthesia was calculated over this period, depending on the concentration of butyric acid or propionic acid or ethyl propanoate used. The flies were considered anesthetized when they stopped moving and fell on their side.

For CCOC(=O)CC [ethyl propanoate], which “time elapsed leading to anesthesia” value (5% in paraffin oil) is on record?
The value was “approximately 6 minutes”.

And the “time elapsed leading to anesthesia” value (10% in paraffin oil)?
Its value is “approximately 4 minutes”.

And the “time elapsed leading to anesthesia” value (30% in paraffin oil)?
The value was 2 to 3 min.
